Legend:
Format in all cases: functional, cell-based
A549 = test: Concentration required to inhibit growth of human tumor A549 (NSCL) cell line.
A121 = test: Concentration required to inhibit growth of human tumor A121 (ovarian) cell line.
HT-29 = test: Concentration required to inhibit growth of human tumor HT-29 (colon) cell line.
MCF7 [1] = test: Concentration required to inhibit growth of human tumor MCF-7 (breast) cell line.
MCF7 [2] = test: Concentration required to inhibit growth of human tumor […] (breast) cell line.

Row | SMILES | IC50 (A549) [nM] | IC50 (A121) [nM] | IC50 (HT-29) [nM] | IC50 (MCF7 [1]) [nM] | IC50 (MCF7 [2]) [nM]
1 | CCCCCC(=O)O[C@H]1C(=O)[C@@]2(C)[C@H]([C@H](OC(=O)c3ccccc3)[C@]3(O)C[C@H](OC(=O)[C@H](O)[C@H](C=C(C)C)NC(=O)OC(C)(C)C)C(C)=C1C3(C)C)[C@]1(OC(C)=O)CO[C@@H]1C[C@@H]2O | 0.57 | 0.5 | 0.9 | 0.4 | 17.3
2 | CC(=O)O[C@@]12CO[C@@H]1C[C@H](O)[C@@]1(C)C(=O)[C@H](OC(=O)C3CC3)C3=C(C)[C@@H](OC(=O)[C@H](O)[C@H](C=C(C)C)NC(=O)OC(C)(C)C)C[C@@](O)([C@@H](OC(=O)c4ccccc4)[C@H]21)C3(C)C | 0.57 | 0.26 | 0.36 | 0.2 | 2.1
3 | CC(=O)O[C@H]1C(=O)[C@@]2(C)[C@H]([C@H](OC(=O)c3ccccc3)[C@]3(O)C[C@H](OC(=O)[C@H](O)[C@H](CC(C)C)NC(=O)OC(C)(C)C)C(C)=C1C3(C)C)[C@]1(OC(C)=O)CO[C@@H]1C[C@@H]2O | 0.98 | 3.8 | 3.2 | 4 | 36
4 | CC(=O)O[C@@]12CO[C@@H]1C[C@H](O)[C@@]1(C)C(=O)[C@H](OC(=O)C3CC3)C3=C(C)[C@@H](OC(=O)[C@H](O)[C@H](CC(C)C)NC(=O)OC(C)(C)C)C[C@@](O)([C@@H](OC(=O)c4ccccc4)[C@H]21)C3(C)C | 1.1 | 0.51 | 0.78 | 0.51 | 4.3
5 | CNC(=O)O[C@H]1C(=O)[C@@]2(C)[C@H]([C@H](OC(=O)c3ccccc3)[C@]3(O)C[C@H](OC(=O)[C@H](O)[C@H](C=C(C)C)NC(=O)OC(C)(C)C)C(C)=C1C3(C)C)[C@]1(OC(C)=O)CO[C@@H]1C[C@@H]2O | 0.7 | 1.2 | 1.2 | 0.4 | 20
6 | CO[C@H]1C(=O)[C@@]2(C)[C@H]([C@H](OC(=O)c3ccccc3)[C@]3(O)C[C@H](OC(=O)[C@H](O)[C@H](CC(C)C)NC(=O)OC(C)(C)C)C(C)=C1C3(C)C)[C@]1(OC(C)=O)CO[C@@H]1C[C@@H]2O | 0.6 | 0.7 | 0.6 | 0.33 | 214
7 | CC(=O)O[C@@]12CO[C@@H]1C[C@H](O)[C@@]1(C)C(=O)[C@H](OC(=O)NC3CCCCC3)C3=C(C)[C@@H](OC(=O)[C@H](O)[C@H](C=C(C)C)NC(=O)OC(C)(C)C)C[C@@](O)([C@@H](OC(=O)c4ccccc4)[C@H]21)C3(C)C | 0.2 | 0.28 | 0.46 | 0.33 | 48
8 | CO[C@H]1C(=O)[C@@]2(C)[C@H]([C@H](OC(=O)c3ccccc3)[C@]3(O)C[C@H](OC(=O)[C@H](O)[C@H](C=C(C)C)NC(=O)OC(C)(C)C)C(C)=C1C3(C)C)[C@]1(OC(C)=O)CO[C@@H]1C[C@@H]2O | 0.9 | 0.7 | 0.9 | 0.37 | 123
9 | CC(=O)O[C@@]12CO[C@@H]1C[C@H](O)[C@@]1(C)C(=O)[C@H](OC(=O)CC(C)(C)C)C3=C(C)[C@@H](OC(=O)[C@H](O)[C@H](C=C(C)C)NC(=O)OC(C)(C)C)C[C@@](O)([C@@H](OC(=O)c4ccccc4)[C@H]21)C3(C)C | 0.5 | 0.34 | 0.5 | 0.4 | 10.5
10 | CC(=O)O[C@@]12CO[C@@H]1C[C@H](O)[C@@]1(C)C(=O)[C@H](OC(=O)N(C)C)C3=C(C)[C@@H](OC(=O)[C@H](O)[C@H](C=C(C)C)NC(=O)OC(C)(C)C)C[C@@](O)([C@@H](OC(=O)c4ccccc4)[C@H]21)C3(C)C | 0.6 | 0.3 | 0.5 | 0.13 | 4.9
11 | CCNC(=O)O[C@H]1C(=O)[C@@]2(C)[C@H]([C@H](OC(=O)c3ccccc3)[C@]3(O)C[C@H](OC(=O)[C@H](O)[C@H](C=C(C)C)NC(=O)OC(C)(C)C)C(C)=C1C3(C)C)[C@]1(OC(C)=O)CO[C@@H]1C[C@@H]2O | 0.15 | 0.29 | 0.41 | 0.31 | 162
12 | CC(=O)O[C@@]12CO[C@@H]1C[C@H](O)[C@@]1(C)C(=O)[C@H](OC(=O)NC(C)C)C3=C(C)[C@@H](OC(=O)[C@H](O)[C@H](C=C(C)C)NC(=O)OC(C)(C)C)C[C@@](O)([C@@H](OC(=O)c4ccccc4)[C@H]21)C3(C)C | 0.36 | 0.34 | 0.52 | 0.46 | 65
13 | COC(=O)O[C@H]1C(=O)[C@@]2(C)[C@H]([C@H](OC(=O)c3ccccc3)[C@]3(O)C[C@H](OC(=O)[C@H](O)[C@H](CC(C)C)NC(=O)OC(C)(C)C)C(C)=C1C3(C)C)[C@]1(OC(C)=O)CO[C@@H]1C[C@@H]2O | 0.35 | 0.18 | 0.44 | 0.28 | 6.4
14 | CC(=O)O[C@@]12CO[C@@H]1C[C@H](O)[C@@]1(C)C(=O)[C@H](OC(=O)CC(C)C)C3=C(C)[C@@H](OC(=O)[C@H](O)[C@H](C=C(C)C)NC(=O)OC(C)(C)C)C[C@@](O)([C@@H](OC(=O)c4ccccc4)[C@H]21)C3(C)C | 0.4 | 0.6 | 0.6 | 0.4 | 8.5
15 | CCCCC(=O)O[C@H]1C(=O)[C@@]2(C)[C@H]([C@H](OC(=O)c3ccccc3)[C@]3(O)C[C@H](OC(=O)[C@H](O)[C@H](C=C(C)C)NC(=O)OC(C)(C)C)C(C)=C1C3(C)C)[C@]1(OC(C)=O)CO[C@@H]1C[C@@H]2O | 0.6 | 0.6 | 0.6 | 0.5 | 30
16 | CCCNC(=O)O[C@H]1C(=O)[C@@]2(C)[C@H]([C@H](OC(=O)c3ccccc3)[C@]3(O)C[C@H](OC(=O)[C@H](O)[C@H](C=C(C)C)NC(=O)OC(C)(C)C)C(C)=C1C3(C)C)[C@]1(OC(C)=O)CO[C@@H]1C[C@@H]2O | 0.22 | 0.34 | 0.55 | 0.36 | 87
17 | COC(=O)O[C@H]1C(=O)[C@@]2(C)[C@H]([C@H](OC(=O)c3ccccc3)[C@]3(O)C[C@H](OC(=O)[C@H](O)[C@H](C=C(C)C)NC(=O)OC(C)(C)C)C(C)=C1C3(C)C)[C@]1(OC(C)=O)CO[C@@H]1C[C@@H]2O | 0.32 | 0.23 | 0.3 | 0.14 | 5.3
18 | C/C=C/C(=O)O[C@H]1C(=O)[C@@]2(C)[C@H]([C@H](OC(=O)c3ccccc3)[C@]3(O)C[C@H](OC(=O)[C@H](O)[C@H](C=C(C)C)NC(=O)OC(C)(C)C)C(C)=C1C3(C)C)[C@]1(OC(C)=O)CO[C@@H]1C[C@@H]2O | 1.7 | 0.45 | 0.6 | 0.26 | 3.4
19 | CC(=O)O[C@@]12CO[C@@H]1C[C@H](O)[C@@]1(C)C(=O)[C@H](OC(=O)N(C)C)C3=C(C)[C@@H](OC(=O)[C@H](O)[C@H](CC(C)C)NC(=O)OC(C)(C)C)C[C@@](O)([C@@H](OC(=O)c4ccccc4)[C@H]21)C3(C)C | 0.5 | 0.4 | 0.6 | 0.36 | 5.8
20 | C=CCNC(=O)O[C@H]1C(=O)[C@@]2(C)[C@H]([C@H](OC(=O)c3ccccc3)[C@]3(O)C[C@H](OC(=O)[C@H](O)[C@H](C=C(C)C)NC(=O)OC(C)(C)C)C(C)=C1C3(C)C)[C@]1(OC(C)=O)CO[C@@H]1C[C@@H]2O | 0.35 | 0.44 | 0.53 | 0.44 | 76
21 | CCN(CC)C(=O)O[C@H]1C(=O)[C@@]2(C)[C@H]([C@H](OC(=O)c3ccccc3)[C@]3(O)C[C@H](OC(=O)[C@H](O)[C@H](C=C(C)C)NC(=O)OC(C)(C)C)C(C)=C1C3(C)C)[C@]1(OC(C)=O)CO[C@@H]1C[C@@H]2O | 0.2 | 0.17 | 0.4 | 0.2 | 9.1
22 | CC(=O)O[C@@]12CO[C@@H]1C[C@H](O)[C@@]1(C)C(=O)[C@H](OC(=O)NC3CCCCC3)C3=C(C)[C@@H](OC(=O)[C@H](O)[C@H](CC(C)C)NC(=O)OC(C)(C)C)C[C@@](O)([C@@H](OC(=O)c4ccccc4)[C@H]21)C3(C)C | 3.7 | 5 | 5 | 1.6 | 33
23 | CCC(=O)O[C@H]1C(=O)[C@@]2(C)[C@H]([C@H](OC(=O)c3ccccc3)[C@]3(O)C[C@H](OC(=O)[C@H](O)[C@H](CC(C)C)NC(=O)OC(C)(C)C)C(C)=C1C3(C)C)[C@]1(OC(C)=O)CO[C@@H]1C[C@@H]2O | 0.53 | 0.41 | 0.53 | 0.35 | 2.8
24 | CC(=O)O[C@@]12CO[C@@H]1C[C@H](O)[C@@]1(C)C(=O)[C@H](OC(=O)N3CCOCC3)C3=C(C)[C@@H](OC(=O)[C@H](O)[C@H](C=C(C)C)NC(=O)OC(C)(C)C)C[C@@](O)([C@@H](OC(=O)c4ccccc4)[C@H]21)C3(C)C | 0.22 | 0.09 | 0.18 | 0.09 | 12.5
25 | CC(=O)O[C@@]12CO[C@@H]1C[C@H](O)[C@@]1(C)C(=O)[C@H](OC(=O)C3CCCCC3)C3=C(C)[C@@H](OC(=O)[C@H](O)[C@H](C=C(C)C)NC(=O)OC(C)(C)C)C[C@@](O)([C@@H](OC(=O)c4ccccc4)[C@H]21)C3(C)C | 0.75 | 0.5 | 1.05 | 0.46 | 22.3
26 | CC(=O)O[C@H]1C(=O)[C@@]2(C)[C@H]([C@H](OC(=O)c3ccccc3)[C@]3(O)C[C@H](OC(=O)[C@H](O)[C@@H](NC(=O)c4ccccc4)c4ccccc4)C(C)=C1C3(C)C)[C@]1(OC(C)=O)CO[C@@H]1C[C@@H]2O [PACLITAXEL] | – | 6.3 | – | – | –
